The values that follow come from paper PMC5392761, “Discovery of Antimalarial Azetidine-2-carbonitriles That Inhibit P. falciparum Dihydroorotate Dehydrogenase” (ACS Medicinal Chemistry Letters, 2017).

The term bioavailability denotes the share of a dose that reaches the circulation, judged against a reference dose that is usually intravenous.

A short description of this series: Mouse pharmacokinetics assay (IV and PO). The class given is in vivo, CD-1 mice. The conditions noted are these: mice.

With `CCCNC(=O)N1[C@H](C#N)[C@H](c2ccc(-c3ccc(C(F)(F)F)c(C(F)(F)F)c3)cc2)[C@H]1CO` [Compound 27], for the setting “female, CD-1, mouse, in vivo, PO 5 mg/kg, IV 1 mg/kg, read-out: F, bioavailability”, the bioavailability stood at 94%. Besides, for the setting “IV 1 mg/kg”, the “C0, initial serum concentration at t = 0” value was determined as 4.9 µM and the “Vss, volume of distribution at steady state” value is recorded as 0.37 L/kg. Besides, the Cmax (PO 5 mg/kg, read-out: Cmax, peak serum concentration) turned out to be 16.9 µM. Besides, the “DNAUC0-inf, dose-normalized area under the plasma concentration vs time curve” value (following PO dosing 5 mg/kg) was greater than 54.3 µM·h.
